Data: US20250195553A1, “Use of Genipin-1-B-D-Gentiobioside in Preparation of Drug” (Guizhou Bailing Group Pharmaceutical Co., Ltd., priority 2023, published 2025)
Like-named read-outs stand apart in the source and are kept apart here.

Legend:
[1] = tested on: Human Coronavirus 229E; test: Cytokines in lung tissue of mice infected with human coronavirus 229E (ELISA); format: in vivo; details: 4 days
Experimental: Seventy Institute of Cancer Research Mouse (ICR) mice were randomly divided into seven groups based on body weight: a normal control group, a model control group, a chloroquine phosphate control group, and four Genipin-1-β-D-gentiobioside dosage groups (75 mg/ml, 37.5 mg/ml, 18.75 mg/ml, and 9.375 mg/ml), with ten mice in each group. Except for the normal control group, the other mice were lightly anesthetized with isoflurane and infected intranasally with 50 μl of 100 TCID50 coronavirus strain 229E or OC43. The infection was repeated every other day. Nebulization administration began on the same day as the first infection, with a flow rate of 7.5 L/min. The four Genipin-1-β-D-gentiobioside dosage groups were nebulized for 25 minutes each. The chloroquine phosphate control group was administered 0.2 ml/10 g body weight by gavage once daily for four consecutive days. The normal control group and the model control group were nebulized with distilled water for 25 minutes under the same conditions. On the fifth day, the mice were dissected, and the following indicators were measured:
(2) The left lung lobes were used for viral nucleic acid detection, while the right lung lobes were used for the quantification of inflammatory factors: IL-6, IL-10, and TNF-α.
The inhalation administration samples mentioned above were used. The weight of the lung tissue was measured, and an appropriate amount of physiological saline was added to make a 10% tissue homogenate. After homogenizing the tissue using a high-throughput tissue grinder, it was centrifuged at 4° C. and 3000 rpm for 10 minutes using a low-temperature high-speed centrifuge. The supernatant was then aspirated, aliquotted, and stored at −80° C. for future use, avoiding repeated freeze-thaw cycles. For detection, the absorbance at 450 nm was measured using a microplate reader according to the kit instructions.

[2] = tested on: Human Coronavirus 229E (HCoV-229E); format: in vivo; details: 4 days
[3] = tested on: SARS-CoV-2; test: Virus titer in lung tissue homogenates of SARS-CoV-2 infected mice (TCID50 on VERO E6 cells); format: in vivo, hACE2 transgenic C57BL/6 mice
Experimental: 2.1 Grouping and Drug Administration: hACE2 transgenic C57BL/6 mice were divided into four groups, namely the blank control group, the SARS-CoV-2 infection group, the Genipin-1-β-D-gentiobioside (37.5 mg/kg) treatment group, and the Genipin-1-β-D-gentiobioside (75 mg/kg) treatment group, with 8 mice in each group. Except for the normal group, which received intranasal administration of Phosphate Buffered Saline (PBS), the other groups were infected with 10^4 Plaque Forming Unit (PFU) of Severe Acute Respiratory Syndrome Coronavirus 2 (SARS-CoV-2) virus via intranasal instillation. Two hours' post-infection, the treatment groups received intraperitoneal injections of the drug once daily for 5 consecutive days. Mouse deaths were recorded daily after infection, and the 5-day mortality rate was calculated. At the end of the experiment, the lung tissues were collected and homogenized for virus titer detection. […]
The well-grown VERO E6 cells were inoculated into a 96-well plate at a density of 1×10^4 cells per well and cultured for another 24 hours. […] The number of wells showing CPE at each concentration gradient was recorded, and the Tissue Culture Infectious Dose 50% (TCID50) value for VERO E6 cells was calculated.

[4] = Median particle size of nebulized test drug solutions; format: physicochemical
Experimental: 1. Genipin-1-β-D gentiobioside 75 mg/ml group, median particle size is 2.02±0.06 μm; Genipin-1-β-D gentiobioside 37.5 mg/ml group, median particle size is 2.12±0.08 μm; Genipin-1-β-D gentiobioside […] group, median particle size is 2.01±0.09 μm; and Genipin-1-β-D gentiobioside 9.375 mg/ml group, median particle size is 2.07±0.06 μm. The nebulization time for each group is 25 minutes.

[5] = tested on: Human Coronavirus 229E (HCoV-229E); format: in vivo

**Q.** With `COC(=O)C1=CO[C@@H](O[C@@H]2O[C@H](CO[C@@H]3O[C@H](CO)[C@@H](O)[C@H](O)[C@H]3O)[C@@H](O)[C@H](O)[C@H]2O)[C@@H]2C(CO)=CC[C@H]12` [Genipin-1-β-D-gentiobioside] as the compound, how does the “Cytokine Levels in Lung Tissue IL-6” value ([1]; 9.375 mg/ml inhalation) read?
**A.** 98.70 ± 4.56 pg/mL

**Q.** And the “Cytokine Levels in Lung Tissue IL-10” value ([1]; 9.375 mg/ml inhalation)?
**A.** 331.34 ± 28.00 pg/mL

**Q.** And the “Cytokine Levels in Lung Tissue TNF-α” value ([1]; 9.375 mg/ml inhalation)?
**A.** 511.16 ± 80.14 pg/mL

**Q.** What about the “Cytokine Levels in Lung Tissue IL-6” value ([1]; 18.75 mg/ml inhalation) of the same compound?
**A.** 99.51 ± 5.24 pg/mL

**Q.** What about the “Cytokine Levels in Lung Tissue IL-10” value ([1]; 18.75 mg/ml inhalation) of the same compound?
**A.** 330.61 ± 25.07 pg/mL

**Q.** And the “Cytokine Levels in Lung Tissue TNF-α” value ([1]; 18.75 mg/ml inhalation)?
**A.** 503.00 ± 56.50 pg/mL

**Q.** And the “Cytokine Levels in Lung Tissue IL-6” value ([1]; 37.5 mg/ml inhalation)?
**A.** 98.23 ± 3.42 pg/mL

**Q.** What about the “Cytokine Levels in Lung Tissue IL-10” value ([1]; 37.5 mg/ml inhalation) of the same compound?
**A.** 334.12 ± 25.59 pg/mL

**Q.** What about the “Cytokine Levels in Lung Tissue TNF-α” value ([1]; 37.5 mg/ml inhalation) of the same compound?
**A.** 513.28 ± 58.74 pg/mL

**Q.** And the “Cytokine Levels in Lung Tissue IL-6” value ([1]; 75 mg/ml inhalation)?
**A.** 98.31 ± 2.78 pg/mL

**Q.** What about the “Cytokine Levels in Lung Tissue IL-10” value ([1]; 75 mg/ml inhalation) of the same compound?
**A.** 341.12 ± 29.07 pg/mL

**Q.** What about the “Cytokine Levels in Lung Tissue TNF-α” value ([1]; 75 mg/ml inhalation) of the same compound?
**A.** 511.81 ± 51.82 pg/mL

**Q.** What about the “Inhibition Rate (lung index)” value ([2]; 9.375 mg/ml inhalation 25 min) of the same compound?
**A.** 65.98%

**Q.** And the “Lung Index” value ([2]; 9.375 mg/ml inhalation 25 min)?
**A.** 0.77 ± 0.08 g lung weight × 100 g/body weight

**Q.** What about the “Inhibition Rate (lung index)” value ([2]; 18.75 mg/ml inhalation 25 min) of the same compound?
**A.** 65.59%

**Q.** And the “Lung Index” value ([2]; 18.75 mg/ml inhalation 25 min)?
**A.** 0.77 ± 0.08 g lung weight × 100 g/body weight

**Q.** What about the “Inhibition Rate (lung index)” value ([2]; 37.5 mg/ml inhalation 25 min) of the same compound?
**A.** 64.22%

**Q.** And the “Lung Index” value ([2]; 37.5 mg/ml inhalation 25 min)?
**A.** 0.77 ± 0.05 g lung weight × 100 g/body weight

**Q.** What about the “Inhibition Rate (lung index)” value ([2]; 75 mg/ml inhalation 25 min) of the same compound?
**A.** 109.19%

**Q.** What about the “Lung Index” value ([2]; 75 mg/ml inhalation 25 min) of the same compound?
**A.** 0.71 ± 0.05 g lung weight × 100 g/body weight

**Q.** And the “Virus titer in the lung tissue vs model control group” value ([3]; 37.5 mg/kg, P<0.05)?
**A.** significantly reduced the virus titer

**Q.** What about the “Virus titer in the lung tissue vs model control group” value ([3]; 75 mg/kg, P<0.01) of the same compound?
**A.** significantly reduced the virus titer

**Q.** And the Median particle size ([4]; 9.375 mg/ml group)?
**A.** 2.07±0.06 μm

**Q.** What about the Median particle size ([4]; 18.755 mg/ml group) of the same compound?
**A.** 2.01±0.09 μm

**Q.** What about the Median particle size ([4]; 37.5 mg/ml group) of the same compound?
**A.** 2.12±0.08 μm

**Q.** And the Median particle size ([4]; 75 mg/ml group)?
**A.** 2.02±0.06 μm

**Q.** What about the “Inhibition Rate (lung index)” value ([5]; 37.5 mg/kg/d i.v. 4 days) of the same compound?
**A.** 75.12%

**Q.** And the “Lung Index” value ([5]; 37.5 mg/kg/d i.v. 4 days)?
**A.** 0.95 ± 0.11 g lung weight × 100 g/body weight

**Q.** And the “Inhibition Rate (lung index)” value ([5]; 75 mg/kg/d i.v. 4 days)?
**A.** 71.04%

**Q.** And the “Lung Index” value ([5]; 75 mg/kg/d i.v. 4 days)?
**A.** 0.96 ± 0.12 g lung weight × 100 g/body weight

**Q.** What about the “Inhibition Rate (lung index)” value ([5]; 150 mg/kg/d i.v. 4 days) of the same compound?
**A.** 99.06%

**Q.** And the “Lung Index” value ([5]; 150 mg/kg/d i.v. 4 days)?
**A.** 0.89 ± 0.06 g lung weight × 100 g/body weight
